SMILES strings stand for the structures. “And” between values parts separate entries of the source, which are not always exact repeats. Equal entries are not always repeated.

For this experiment, the system named is E. coli [ATCC25922]. Nature of the experiment: Urinary tract infection (UTI) rat model. The format is in vivo. The following applies: for MEAN ± SD (Log10 CFU/g kidneys) / Mean Log10 CFU/g kidney reduction (wrt 4 h PI control: 6.03 Log10 CFU/g kidneys) / MEAN ± SD (Log 10 CFU/ml Bladder) / Mean Log10 CFU/ml Bladder reduction (wrt 4 h PI control: 6.49 CFU/ml Bladder) / Log10 CFU/g (Left Kidney) / Log10 CFU/g (Right Kidney) / Log 10 CFU/ml Bladder: i.v., 1 h infusion, rat UTI, 24 h post infection; for Log10 CFU/g (Left Kidney) / Log10 CFU/g (Right Kidney) / Log 10 CFU/ml Bladder: individual animals. As to the method:
The purpose of this study is to assess the efficacy of Example 15 against E. coli [ATCC25922] following single dose intravenous infusion doses of 3, 10 and 30 mg/kg in a Urinary Tract Infection Rat Model
Prior to the start of the infection process all animals were divided into different groups. All grouped cages of animals were carried to a procedure room, close to a biological safety cabinet. All infections were conducted in a biological safety cabinet, with appropriate personnel protection. Animals were anaesthetized by intraperitoneal injection of ketamine & xylazine (60+10 mg/kg i.p.) cocktail. Once the animals were in a sufficiently deep plane of anaesthesia as monitored by pedal reflex, the abdominal wall of each rat was shaved with electric clippers and the skin was cleansed with 10% povidine iodine. After a 1.5 to 2 cm lower abdominal wall incision, the abdominal wall muscles were separated with blunt dissection. […] After the replacement of the bladder to its original location, the abdominal muscles were approximated using suture and the skin was closed. The wounds were cleansed using 10% povidine iodine.
The IV formulation vehicle used was 10% of L-ascorbic acid in fresh MilliQ water (w/v) with pH adjusted to 4.0 with 1N Sodium hydroxide solution (w/v), and the dose volume was 10 mL/kg. Meropenem was prepared in MilliQ water and the pH of solution was adjusted to 4.5 using HCl. Four hours post infection, animals were dosed intravenously, as single doses (for test compounds), as a constant rate infusion, under Ketamine 60 mg/kg IP+Xylazine 10 mg/kg IP anesthesia, at a dose volume of 10 ml/kg, at the rate of 0.03 ml/min. The dose levels of the test compounds were 3, 10 and 30 mg/kg. Meropenem was administered as a single bolus dose at a dose volume of 5 ml/kg. All the animals were sacrificed at 24 h post infection, as specified in experimental design, by an overdose of CO2 in an appropriate exposure chamber. The group 1 animals were sacrificed at 4 h post infection.
The euthanized animals were dipped into 70% ethanol for surface decontamination. The organs were removed aseptically; the bladder was cut away near the urethra, and the kidneys were removed by blunt dissection to avoid bleeding. The bladder and each kidney separately were be homogenized in PBS. The CFU per milliliter homogenate of bladder, & kidney were determined after 18 to 24 h of incubation at 37° C.

As for `Cn1c(=O)ccc2ccc(F)c(CCNC[C@H]3CN(c4cnc5c(n4)NC(=O)CO5)C(=O)O3)c21` [Example 15, (S)-6-(5-(((2-(7-fluoro-1-methyl-2-oxo-1,2-dihydroquinolin-8-yl)ethyl)amino)methyl)-2-oxooxazolidin-3-yl)-2H-pyrazino[2,3-b][1,4]oxazin-3(4H)-one], where the note is “3 mg/kg”, the “MEAN ± SD (Log10 CFU/g kidneys)” value was 7.13 ± 0.62 Log10 CFU/g kidneys, the “Mean Log10 CFU/g kidney reduction (wrt 4 h PI control: 6.03 Log10 CFU/g kidneys)” value (“Mean Log10 CFU/g kidney reduction” for short) was −1.1 Log10 CFU/g kidneys, the “MEAN ± SD (Log 10 CFU/ml Bladder)” value turned out to be 7.01 ± 0.23 Log 10 CFU/ml and the “Mean Log10 CFU/ml Bladder reduction (wrt 4 h PI control: 6.49 CFU/ml Bladder)” value (“Mean Log10 CFU/ml Bladder reduction” below) is on record as −0.52 Log10 CFU/ml. Besides, under “3 mg/kg”, the “Log10 CFU/g (Left Kidney)” value was 6.81 Log10 CFU/g and 6.44 Log10 CFU/g and 6.48 Log10 CFU/g; the “Log10 CFU/g (Right Kidney)” value was 7.51 Log10 CFU/g and 7.68 Log10 CFU/g and 7.86 Log10 CFU/g; the “Log 10 CFU/ml Bladder” value is 5.54 Log 10 CFU/ml and 6.79 Log 10 CFU/ml and 7.00 Log 10 CFU/ml. Also, for the setting “10 mg/kg”, the “MEAN ± SD (Log10 CFU/g kidneys)” value worked out at 5.82 ± 0.94 Log10 CFU/g kidneys, the “Mean Log10 CFU/g kidney reduction” value stood at 0.21 Log10 CFU/g kidneys, the “MEAN ± SD (Log 10 CFU/ml Bladder)” value is listed as 5.85 ± 0.27 Log 10 CFU/ml and the “Mean Log10 CFU/ml Bladder reduction” value came out at 0.64 Log10 CFU/ml. Besides, for the setting “10 mg/kg”, the “Log10 CFU/g (Left Kidney)” value is 4.69 Log10 CFU/g and 5.68 Log10 CFU/g and 4.80 Log10 CFU/g; the “Log10 CFU/g (Right Kidney)” value was 6.66 Log10 CFU/g and 6.13 Log10 CFU/g and 6.97 Log10 CFU/g; the “Log 10 CFU/ml Bladder” value is 5.54 Log 10 CFU/ml and 5.97 Log 10 CFU/ml and 6.05 Log 10 CFU/ml. Also, for the setting “30 mg/kg”, the “MEAN ± SD (Log10 CFU/g kidneys)” value is 4.46 ± 0.52 Log10 CFU/g kidneys, the “Mean Log10 CFU/g kidney reduction” value was 1.57 Log10 CFU/g kidneys, the “MEAN ± SD (Log 10 CFU/ml Bladder)” value was determined as 4.80 ± 0.17 Log 10 CFU/ml and the “Mean Log10 CFU/ml Bladder reduction” value stood at 1.69 Log10 CFU/ml. Moreover, under “30 mg/kg”, the “Log10 CFU/g (Left Kidney)” value was 4.98 Log10 CFU/g and 3.84 Log10 CFU/g and 4.12 Log10 CFU/g; the “Log10 CFU/g (Right Kidney)” value is 4.66 Log10 CFU/g and 4.05 Log10 CFU/g and 5.11 Log10 CFU/g; the “Log 10 CFU/ml Bladder” value is 4.61 Log 10 CFU/ml and 4.91 Log 10 CFU/ml and 4.90 Log 10 CFU/ml. Also, the “efficacy compared to the 4 h PI control (in words)” value (rat UTI model, 3 mg/kg) is “bacteriostatic”. In addition, the “efficacy with respect to 4 h PI control (in words)” value (rat UTI model, 10 and 30 mg/kg) is on record as “significant dose dependent”. Moreover, for the setting “rat UTI model, similar dose (30 mg/kg)”, the “efficacy versus standard drug (in words)” value is listed as “comparable to standard drug meropenem”.

Source of the values: patent publication US10912780B2, “Heterocyclic compounds useful as anti-bacterial agents and method for production thereof” (Bugworks Research, Inc., priority 2017, dated 2021).
